Experimental data reported in the supplement of paper PMC4932681.

Legend:
BT-474 Tam2 [1] = test: drug sensitivity score (DSS) (DSS (dimensionless)); higher = more sensitive; extreme values may be limits of the assay; conditions: 4-OH-tamoxifen in medium 1 µM; 72 h
In short: (§1)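 Breast cancer cell lines and their resistant derivatives were seeded into 384-well plates holding FO2Baq library drugs at five concentrations spanning a 10 000-fold range. Resistant lines were in medium with 1 μM of the selecting drug. Cells were incubated 72 h at 37 °C, and CellTiter-Glo viability was read on a PHERAstar and normalised to vehicle-only and positive controls. Drug sensitivity score, relative IC50 (curve midpoint) and top-dose inhibition came from logistic dose–response fits (Breeze pipeline).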

ZR-75-1 Tam1 [2] = test: as above; conditions: 4-OH-tamoxifen in medium 1 µM; 72 h
In short: as §1

T-47D Tam1 [3] = test: as above; conditions: 4-OH-tamoxifen in medium 1 µM; 72 h
In short: as §1

BT-474 [4] = test: as above; conditions: 72 h
In short: as §1

ZR-75-1 [5] = test: as above; conditions: 72 h
In short: as §1

BT-474 Tam1 = test: as above; conditions: 4-OH-tamoxifen in medium 1 µM; 72 h
In short: as §1

MCF-7 Tam1 [6] = test: as above; conditions: 4-OH-tamoxifen in medium 1 µM; 72 h
In short: as §1

T-47D Tam2 [7] = test: as above; conditions: 4-OH-tamoxifen in medium 1 µM; 72 h
In short: as §1

T-47D [8] = test: as above; conditions: 72 h
In short: as §1

ZR-75-1 Tam2 [9] = test: as above; conditions: 4-OH-tamoxifen in medium 1 µM; 72 h
In short: as §1

MCF-7 [10] = test: as above; conditions: 72 h
In short: as §1

BT-474 Tam2 [11] = test: relative IC50 (midpoint of fitted logistic curve, plateau may be below 50% inhibition; CellTiter-Glo viability); higher = less potent; conditions: 4-OH-tamoxifen in medium 1 µM; 72 h
In short: as §1

ZR-75-1 Tam1 [12] = test: as above; conditions: 4-OH-tamoxifen in medium 1 µM; 72 h
In short: as §1

T-47D Tam1 [13] = test: as above; conditions: 4-OH-tamoxifen in medium 1 µM; 72 h
In short: as §1

BT-474 [14] = test: as above; conditions: 72 h
In short: as §1

ZR-75-1 [15] = test: as above; conditions: 72 h
In short: as §1

MCF-7 Tam1 [16] = test: as above; conditions: 4-OH-tamoxifen in medium 1 µM; 72 h
In short: as §1

T-47D Tam2 [17] = test: as above; conditions: 4-OH-tamoxifen in medium 1 µM; 72 h
In short: as §1

T-47D [18] = test: as above; conditions: 72 h
In short: as §1

ZR-75-1 Tam2 [19] = test: as above; conditions: 4-OH-tamoxifen in medium 1 µM; 72 h
In short: as §1

MCF-7 [20] = test: as above; conditions: 72 h
In short: as §1

SMILES	drug sensitivity score (BT-474 Tam2 [1])	drug sensitivity score (ZR-75-1 Tam1 [2])	drug sensitivity score (T-47D Tam1 [3])	drug sensitivity score (BT-474 [4]; 4-OH-tamoxifen in medium 0 µM)	drug sensitivity score (BT-474 [4]; 4-OH-tamoxifen in medium 1 µM)	drug sensitivity score (ZR-75-1 [5]; 4-OH-tamoxifen in medium 0 µM)	drug sensitivity score (ZR-75-1 [5]; 4-OH-tamoxifen in medium 1 µM)	drug sensitivity score (BT-474 Tam1)	drug sensitivity score (MCF-7 Tam1 [6])	drug sensitivity score (T-47D Tam2 [7])	drug sensitivity score (T-47D [8]; 4-OH-tamoxifen in medium 0 µM)	drug sensitivity score (T-47D [8]; 4-OH-tamoxifen in medium 1 µM)	drug sensitivity score (ZR-75-1 Tam2 [9])	drug sensitivity score (MCF-7 [10]; 4-OH-tamoxifen in medium 0 µM)	drug sensitivity score (MCF-7 [10]; 4-OH-tamoxifen in medium 1 µM)	relative IC50 (BT-474 Tam2 [11]) [nM]	relative IC50 (ZR-75-1 Tam1 [12]) [nM]	relative IC50 (T-47D Tam1 [13]) [nM]	relative IC50 (BT-474 [14]; 4-OH-tamoxifen in medium 0 µM) [nM]	relative IC50 (BT-474 [14]; 4-OH-tamoxifen in medium 1 µM) [nM]	relative IC50 (ZR-75-1 [15]; 4-OH-tamoxifen in medium 0 µM) [nM]	relative IC50 (ZR-75-1 [15]; 4-OH-tamoxifen in medium 1 µM) [nM]	relative IC50 (MCF-7 Tam1 [16]) [nM]	relative IC50 (T-47D Tam2 [17]) [nM]	relative IC50 (T-47D [18]; 4-OH-tamoxifen in medium 0 µM) [nM]	relative IC50 (T-47D [18]; 4-OH-tamoxifen in medium 1 µM) [nM]	relative IC50 (ZR-75-1 Tam2 [19]) [nM]	relative IC50 (MCF-7 [20]; 4-OH-tamoxifen in medium 0 µM) [nM]	relative IC50 (MCF-7 [20]; 4-OH-tamoxifen in medium 1 µM) [nM]
Cc1cc2c(F)c(Oc3ncnn4cc(OC[C@@H](C)O)c(C)c34)ccc2[nH]1 [Brivanib]	0	0	0	0	0	0	0	0	0	0	0	0	0	0	0	> 1000	> 1000	> 1000	> 1000	> 1000	> 1000	> 1000	> 1000	> 1000	> 1000	> 1000	> 1000	> 1000	> 1000
CNC(=O)c1cc(Oc2ccc(NC(=O)Nc3ccc(Cl)c(C(F)(F)F)c3)cc2)ccn1 [Sorafenib]	0	0	0	0	0	0	0	0.0104	0	0	0	0	0	0	0	> 1000	> 1000	> 1000	> 1000	> 1000	> 1000	> 1000	> 1000	> 1000	> 1000	> 1000	> 1000	> 1000	> 1000
C[C@@]1(C(=O)Nc2ccc(F)nc2)CCCN1c1nc(Nc2cc(C3CC3)n[nH]2)c2cccn2n1	0	0	4.88	0.215	0.473	0	0	0.49	13.2	6.16	5.37	7.74	0	17.7	21	> 10000	> 10000	1160	–	–	> 10000	> 10000	197	1140	921	210	> 10000	78.9	80.2
